Assay: cn = amount concentration of the nth substance listed, in mol/dm3
Conditions: 298.15 K, 101 kPa, Liquid, Direct current cell with electrodes

CCCCCCCCn1cc[n+](C)c1.O=S(=O)([N-]S(=O)(=O)C(F)(F)F)C(F)(F)F + ClCCl
Conditions	molar conductivity [S·m2/mol]
c1 = 1.807e-05	0.005919
c1 = 4.306e-05	0.004426
c1 = 7.895e-05	0.003536
c1 = 0.0001156	0.003048
c1 = 0.0001516	0.002738
c1 = 0.0001934	0.002482
c1 = 0.0002361	0.002291
c1 = 0.0002758	0.002153
c1 = 0.000322	0.002022
c1 = 0.000369	0.001913

CC[N+](CC)(CC)CC.F[P-](F)(F)(F)(F)F [tetraethylammonium hexafluorophosphate] + ClCCl
Conditions	molar conductivity [S·m2/mol]
c1 = 2.991e-05	0.008681
c1 = 7.038e-05	0.00678
c1 = 0.0001289	0.005542
c1 = 0.0001812	0.004911
c1 = 0.0002384	0.004448
c1 = 0.0002993	0.00409
c1 = 0.0003669	0.003794
c1 = 0.0004231	0.003599
c1 = 0.000508	0.003365
c1 = 0.0006057	0.003153

CCCC[n+]1ccn(C)c1.O=S(=O)([N-]S(=O)(=O)C(F)(F)F)C(F)(F)F + ClCCl
Conditions	molar conductivity [S·m2/mol]
c1 = 3.993e-05	0.005031
c1 = 7.416e-05	0.004
c1 = 0.0001094	0.00344
c1 = 0.0001439	0.003085
c1 = 0.0001819	0.002807
c1 = 0.0002096	0.002651
c1 = 0.0002378	0.002519
c1 = 0.0002686	0.002394
c1 = 0.000298	0.002296
c1 = 0.0003273	0.002211

CCCCn1cc[n+](C)c1C.F[B-](F)(F)F [1-butyl-2,3-dimethylimidazolium tetrafluoroborate] + ClCCl
Conditions	molar conductivity [S·m2/mol]
c1 = 4.614e-05	0.006049
c1 = 9.614e-05	0.0047
c1 = 0.0001552	0.003942
c1 = 0.0002185	0.003459
c1 = 0.0002763	0.003161
c1 = 0.0003472	0.002891
c1 = 0.0004196	0.002684
c1 = 0.0005021	0.002502
c1 = 0.0005985	0.002336
c1 = 0.0006827	0.00222

CC[N+](CC)(CC)CC.O=S(=O)([N-]S(=O)(=O)C(F)(F)F)C(F)(F)F [tetraethylammonium bis[(trifluoromethyl)sulfonyl]imide] + ClCCl
Conditions	molar conductivity [S·m2/mol]
c1 = 2.423e-05	0.009105
c1 = 5.571e-05	0.007427
c1 = 9.604e-05	0.006311
c1 = 0.0001485	0.005431
c1 = 0.0001889	0.005043
c1 = 0.0002419	0.004629
c1 = 0.0002877	0.004339
c1 = 0.0004028	0.003882
c1 = 0.0004632	0.003716

CCCC[N+](CCCC)(CCCC)CCCC.O=S(=O)([N-]S(=O)(=O)C(F)(F)F)C(F)(F)F [tetrabutylammonium bis[(trifluoromethyl)sulfonyl]imide] + ClCCl
Conditions	molar conductivity [S·m2/mol]
c1 = 3.138e-05	0.007892
c1 = 6.11e-05	0.006903
c1 = 0.0001374	0.005603
c1 = 0.0001725	0.00525
c1 = 0.0002161	0.00489
c1 = 0.0002632	0.004603
c1 = 0.0003161	0.004342
c1 = 0.0003672	0.004133
c1 = 0.0004141	0.003988

CCCCn1cc[n+](C)c1.F[B-](F)(F)F [1-butyl-3-methylimidazolium tetrafluoroborate] + ClCCl
Conditions	molar conductivity [S·m2/mol]
c1 = 4.455e-05	0.003701
c1 = 0.0001304	0.002353
c1 = 0.0002072	0.001927
c1 = 0.0002805	0.001689
c1 = 0.0003592	0.00152
c1 = 0.0004262	0.001412
c1 = 0.0005183	0.001299
c1 = 0.000625	0.0012
c1 = 0.0007268	0.001127
c1 = 0.0008458	0.001058

CCCCn1cc[n+](C)c1C.F[P-](F)(F)(F)(F)F [1-butyl-2,3-dimethylimidazolium hexafluorophosphate] + ClCCl
Conditions	molar conductivity [S·m2/mol]
c1 = 4.824e-05	0.006815
c1 = 9.247e-05	0.00553
c1 = 0.0001694	0.004468
c1 = 0.0002351	0.003966
c1 = 0.0003147	0.003557
c1 = 0.0003984	0.003254
c1 = 0.0004826	0.003028
c1 = 0.0005864	0.002809
c1 = 0.0007039	0.002623
c1 = 0.0008092	0.002481

CCCCCC[n+]1ccn(C)c1.O=S(=O)([N-]S(=O)(=O)C(F)(F)F)C(F)(F)F + ClCCl
Conditions	molar conductivity [S·m2/mol]
c1 = 3.872e-05	0.004826
c1 = 7.796e-05	0.003727
c1 = 0.0001134	0.003224
c1 = 0.0001471	0.002907
c1 = 0.0001812	0.002674
c1 = 0.000212	0.00251
c1 = 0.0002454	0.002365
c1 = 0.0002746	0.002261
c1 = 0.0003046	0.002169
c1 = 0.0003313	0.002097
